What all share (assay): KINOMEscan
Assay type in all cases: binding
Details in all cases: read-out: % control activity remaining

The target in one test is T1, GCN2(Kin.Dom.2,S808G) (Homo sapiens, UniProt Q9P2K8, S808G).
T1 construct: GCN2(Kin.Dom.2,S808G); purchased Eurofins DiscoverX KINOMEscan
T1 sequence (Q9P2K8 590-1001 S808G limits assumed): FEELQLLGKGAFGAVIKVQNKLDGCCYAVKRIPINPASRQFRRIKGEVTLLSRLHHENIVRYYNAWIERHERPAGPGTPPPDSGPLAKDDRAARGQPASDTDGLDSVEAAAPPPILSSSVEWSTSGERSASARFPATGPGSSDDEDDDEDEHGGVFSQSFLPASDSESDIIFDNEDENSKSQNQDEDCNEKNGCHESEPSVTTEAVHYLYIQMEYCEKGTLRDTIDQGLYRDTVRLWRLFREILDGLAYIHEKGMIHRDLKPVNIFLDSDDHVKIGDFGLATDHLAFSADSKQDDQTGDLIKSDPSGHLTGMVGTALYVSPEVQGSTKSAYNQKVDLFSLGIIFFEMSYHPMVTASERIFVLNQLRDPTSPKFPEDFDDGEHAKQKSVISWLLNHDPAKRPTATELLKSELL

A further test addresses T2, YSK1 (Homo sapiens, UniProt O00506).
T2 construct: purchased Eurofins DiscoverX KINOMEscan

Test [1] concerns the target T3, ABL1(H396P)-nonphosphorylated (Homo sapiens, UniProt P00519, H396P).
T3 construct: purchased Eurofins DiscoverX KINOMEscan

The target of another test is T4, BMPR1B (Homo sapiens, UniProt O00238).
T4 construct: purchased Eurofins DiscoverX KINOMEscan
T4 sequence (O00238 14-502): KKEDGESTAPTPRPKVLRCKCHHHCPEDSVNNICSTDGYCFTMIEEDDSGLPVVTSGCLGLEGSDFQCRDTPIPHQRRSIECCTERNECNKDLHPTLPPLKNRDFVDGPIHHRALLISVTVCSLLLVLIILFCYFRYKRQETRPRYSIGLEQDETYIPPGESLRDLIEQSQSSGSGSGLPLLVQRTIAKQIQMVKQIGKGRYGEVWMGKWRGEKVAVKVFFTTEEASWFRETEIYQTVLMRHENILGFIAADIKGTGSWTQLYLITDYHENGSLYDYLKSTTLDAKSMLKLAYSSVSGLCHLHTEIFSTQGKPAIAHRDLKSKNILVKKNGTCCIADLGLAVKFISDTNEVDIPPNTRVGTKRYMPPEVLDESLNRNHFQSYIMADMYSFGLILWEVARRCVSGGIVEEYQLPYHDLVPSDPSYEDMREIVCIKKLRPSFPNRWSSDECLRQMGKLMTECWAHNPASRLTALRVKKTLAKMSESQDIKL

In another test the target is T5, DCAMKL2 (Homo sapiens, UniProt Q8N568).
T5 construct: purchased Eurofins DiscoverX KINOMEscan
T5 sequence (Q8N568 1-766): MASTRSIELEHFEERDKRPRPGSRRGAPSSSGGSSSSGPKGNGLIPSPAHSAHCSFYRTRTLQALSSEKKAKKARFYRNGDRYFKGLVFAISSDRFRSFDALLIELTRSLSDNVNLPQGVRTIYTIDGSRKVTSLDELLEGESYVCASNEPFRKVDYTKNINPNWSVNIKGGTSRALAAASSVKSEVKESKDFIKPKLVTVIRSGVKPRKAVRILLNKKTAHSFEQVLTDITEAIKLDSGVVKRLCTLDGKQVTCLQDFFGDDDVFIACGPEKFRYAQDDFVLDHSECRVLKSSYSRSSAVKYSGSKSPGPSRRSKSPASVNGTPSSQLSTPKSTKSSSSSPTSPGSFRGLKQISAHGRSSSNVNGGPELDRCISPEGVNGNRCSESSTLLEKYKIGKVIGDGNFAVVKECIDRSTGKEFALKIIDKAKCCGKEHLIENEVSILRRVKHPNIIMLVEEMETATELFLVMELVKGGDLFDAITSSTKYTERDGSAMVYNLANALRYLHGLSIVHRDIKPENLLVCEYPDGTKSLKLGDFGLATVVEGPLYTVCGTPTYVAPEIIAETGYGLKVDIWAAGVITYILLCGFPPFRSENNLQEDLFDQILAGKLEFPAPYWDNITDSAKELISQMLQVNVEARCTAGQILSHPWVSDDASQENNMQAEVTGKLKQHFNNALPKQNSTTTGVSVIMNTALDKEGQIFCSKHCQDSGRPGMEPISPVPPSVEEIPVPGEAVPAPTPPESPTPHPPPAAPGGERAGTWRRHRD

In a further test the target is T6, CDKL2 (Homo sapiens, UniProt Q92772).
T6 construct: purchased Eurofins DiscoverX KINOMEscan
T6 sequence (Q92772 1-493): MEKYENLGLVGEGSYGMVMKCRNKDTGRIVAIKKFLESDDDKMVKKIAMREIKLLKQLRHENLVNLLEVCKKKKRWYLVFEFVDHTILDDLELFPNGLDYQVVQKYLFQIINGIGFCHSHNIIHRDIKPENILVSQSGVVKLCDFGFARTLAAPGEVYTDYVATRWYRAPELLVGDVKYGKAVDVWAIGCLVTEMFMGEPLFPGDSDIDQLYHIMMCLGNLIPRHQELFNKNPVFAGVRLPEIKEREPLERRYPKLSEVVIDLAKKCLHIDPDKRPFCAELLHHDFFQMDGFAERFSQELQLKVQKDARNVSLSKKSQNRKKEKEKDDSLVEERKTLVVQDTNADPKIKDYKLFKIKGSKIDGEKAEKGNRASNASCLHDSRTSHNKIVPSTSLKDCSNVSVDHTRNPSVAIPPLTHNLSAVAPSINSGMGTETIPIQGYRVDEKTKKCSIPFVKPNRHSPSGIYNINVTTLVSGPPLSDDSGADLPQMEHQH

T2 sequence (O00506 whole entry): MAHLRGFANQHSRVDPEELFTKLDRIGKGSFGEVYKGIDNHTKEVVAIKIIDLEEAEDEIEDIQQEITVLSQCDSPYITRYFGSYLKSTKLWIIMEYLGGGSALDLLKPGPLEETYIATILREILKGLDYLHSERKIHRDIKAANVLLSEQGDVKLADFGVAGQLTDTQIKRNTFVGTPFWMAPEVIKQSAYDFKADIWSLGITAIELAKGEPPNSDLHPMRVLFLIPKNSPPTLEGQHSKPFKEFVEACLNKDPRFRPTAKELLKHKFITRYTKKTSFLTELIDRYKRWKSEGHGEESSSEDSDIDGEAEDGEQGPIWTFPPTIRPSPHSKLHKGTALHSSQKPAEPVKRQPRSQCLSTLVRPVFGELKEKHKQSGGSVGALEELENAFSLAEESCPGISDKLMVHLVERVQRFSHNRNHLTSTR

As for `Clc1cc(NCC2CC2)c2ncc(-c3ccc4[nH]ncc4c3)n2n1` [compound 2, 6-Chloro-N-(cyclopropylmethyl)-3-(1H-indazol-5-yl)imidazo[1,2-b]pyridazin-8-amine], the remaining binding at 1 µM at GCN2(Kin.Dom.2,S808G) came out at 93%; on YSK1, 92%; in test [1] it was 74%; on BMPR1B, 100%; at DCAMKL2 it was 95%; on CDKL2 it was 83%.
Consider `O=C(CN1CCOCC1)N[C@H]1CC[C@H](Nc2cc(Cl)nn3c(-c4ccc5[nH]ncc5c4)cnc23)CC1` [compound 26], for which the remaining binding at 1 µM at GCN2(Kin.Dom.2,S808G) is 97%; on YSK1, 100%; in test [1] it was 16%; at BMPR1B, 100%; at DCAMKL2, 92%; on CDKL2 it was 88%.
Consider `CN1CCC(CNc2cc(Cl)nn3c(-c4cc5nc(Nc6ccccc6)[nH]c5cc4F)cnc23)CC1` [compound 31, 6-Chloro-3-(6-fluoro-2-(phenylamino)-1H-benzo[d]imidazol-5-yl)-N-((1-methylpiperidin-4-yl)methyl)imidazo[1,2-b]pyridazin-8-amine], for which the remaining binding at 1 µM turned out to be 77% at GCN2(Kin.Dom.2,S808G); 99% at YSK1; 42% in test [1]; 67% at BMPR1B; 96% at DCAMKL2; 81% at CDKL2.

(Values after publication PMC6437697 (Journal of Medicinal Chemistry, 2019).)
